{"source": "patent EP1808169B1", "about": "“Polyhydroxylated aromatic compounds for the treatment of amyloidosis and alpha-synuclein fibril diseases” (priority 1999, dated 2001)", "format_in_all_cases": "biochemical", "key": {"[1]": {"system": "Aβ 1-42 amyloid fibrils", "test": "Thioflavin T fluorometry: disassembly/disruption of pre-formed Aβ 1-42 amyloid fibrils", "settings": "overnight (~18 hours) at 37°C, pH 7.0, mean of triplicate ± standard deviation", "protocol": "For the first study, 1 mg of Aβ 1-42 (Bachem Inc., Torrance, CA, USA) was dissolved in 1.0 ml of double distilled water (1 mg/ml solution). 25 µM of Aβ 1-42 was then incubated overnight (~18 hours) at 37°C, in the absence or presence of 100µg/ml of the following compounds: 1) EDTA (Sigma Chemical Company, St. Louis, MO, USA), 2) myricetin (Acros, Somerville, New Jersey, USA), 3) exifone (Acros) 4) pyrogallol (Sigma), 5) tannic acid (Acros), 6) pyrocatechol (Acros), 7) quercetin (Sigma), 8) ellagic acid (Acros), 9) 1,2,4-benzenetriol (Acros), 10) 5-hydroxydopamine (Acros), 11) gallamide hydrate (Acros), 12) gallic acid (Sigma), 13) ethyl gallate (Acros), 14) quinic acid (Acros), 15) propyl gallate (Sigma), and 16) phloroglucide (Acros), each in the presence of 150 mM Tris HCl, 10 mM NaCl (pH 7.0) with 0.02% sodium azide. In this study, the Aβ 1-42:compound weight ratio was 1:1.\nFor the second study, 1 mg of Aβ 1-42 (Bachem) was dissolved in 1.0 ml of double distilled water (1 mg/ml solution). 25 µM of Aβ 1-42 was then incubated overnight (~18 hours) at 37°C, in the absence or presence of 50µg/ml of the following compounds: 1) gallic acid, 2) ethyl gallate, 3) quinic acid, 4) gallamide trihydrate, 5) ellagic acid, 6) propyl gallate, and 7) pyrogallol, each in the presence of 150 mM Tris HCl, 10 mM NaCl (pH 7.0) with 0.02% sodium azide. In this study, the Aβ 1-42:compound weight ratio was 2:1.\nThioflavin T is known to bind to fibrillar amyloid proteins, and an increase in fluorescence correlates with an increase in amyloid fibril formation, whereas a decrease in fluorescence correlates with a decrease in amyloid fibrils due to disassembly and/or disruption. The Alzheimer's Aβ protein (1-42) when placed in solution, such as distilled water, tends to spontaneously form amyloid fibrils. Using this sensitive assay, any decreases or increases in fluorescence was previously shown to correlate with a decrease or increase in the amount of amyloid fibrils (see the documents cited above), allowing one to identify and quantitate the extent of potential inhibitors and/or enhancers of Alzheimer's Aβ 1-42 amyloid fibrils.\nTo assess the effects of each compound on potential disassembly/ disruption of preformed Aβ 1-42 fibrils, 50 µl of Aβ 1-42 with or without test compounds (described above) were added to 1.2 ml of 100µM Thioflavin T (Sigma) in 50mM NaH2PO4 (pH 6.0) for fluorometry readings. […] Fluorescence emission at 482 nm was measured on a Turner instrument-model 450 fluorometer at an excitation wavelength of 450 nm. For each determination, the fluorometer was calibrated by zeroing in the presence of the Thioflavin T reagent alone, and by setting the 50 ng/ml riboflavin (Sigma Chemical Co., St. Louis, MO) in the Thioflavin T reagent to 1800 fluorescence units. All fluorescence determinations were based on these references and any fluorescence given off by any of the compounds in the presence of the Thioflavin T reagent was always subtracted from all pertinent readings.\nFor all fibrillogenesis studies utilizing Thioflavin T fluorometry, as disclosed herein, comparisons of amyloid protein in the presence or absence of test compounds were based on paired Student's t tests with data shown as the mean of triplicate measurements ± standard deviation."}, "[2]": {"system": "Aβ 1-40 amyloid fibrils", "test": "Modified Congo red-Aβ spectrophotometric assay: disaggregation of pre-formed Aβ 1-40 fibrils (3 days incubation)", "settings": "Aβ:compound weight ratio 2:1; fibrillized Aβ 1-40 incubated with compound 3 days at 37°C in TBS pH 7.0; Δ absorbance at 540 nm; triplicate", "protocol": "In this study, a Congo red-Aβ spectrophotometric assay (Klunk et al., Anal. Biochem. 266:66-76, 1999) was modified to determine the effectiveness of polyhydroxylated aromatic compounds on the disaggregation of pre-formed Aβ 1-40 amyloid fibrils. For this assay, 1 mg of Aβ 1-40 (Bachem) was incubated for 4 days in distilled water at 37°C to spontaneously produce amyloid fibrils. 25pM of fibrillized Aβ 1-40 was then incubated in triplicate with various test compounds for 3 days at 37°C in Tris-buffered saline (TBS)(100 mM Tris; 50 mM NaCl; pH 7.0, with 0.02% sodium azide), at an Aβ:compound weight ratio of 2:1. Following incubation, 50µl of 360 µM Congo red (Sigma) in distilled water was then added to 250 µl of each incubation mixture, giving a final Aβ:Congo red molar ratio of 1:3. After 10 minutes, the absorbance at 405 nm (reference wavelength to account for the absorbance of Congo red alone at 540 nm) and 540 nm (sample absorbance where \"sample\" refers to Aβ alone, test compound alone, or Aβ plus test compound, all in the presence of Congo red) was determined using a Biorad Model 550 BLISA Plate Reader (Biorad, Hercules, CA, USA). The absorbance at wavelength 405 nm was automatically subtracted by the ELISA plate reader from the absorbance at wavelength 540 nm (difference is referred to as Δ absorbance)(see Klunk et al. cited above). Therefore, the Δ absorbance reading at 540 nm was proportional to the amount of aggregated Aβ left in solution (Klunk et al.).\nFor all experiments involving test compounds, the Δ absorbance reading at 540 nm of the test compound alone (in the absence of Aβ), was always subtracted from the corresponding Δ absorbance reading at 540 nm of the test compound in the presence of Aβ. Using this modification of the method of Klunk et al., the use of a greater final concentration of Congo red, i.e. 60µM instead of 14µM, in the presence of fibrillar Aβ gave an overall absorbance at 540 nm that was always below 1.0 Absorbance Unit (AU), and well within the linear absorbance range.\nThe following polyhydroxylated aromatic containing compounds were tested using the above described Congo red-Aβ spectrophotometric assay to determine their effectiveness on disaggregation of pre-formed Aβ 1-40 amyloid fibrils: 1) gallic acid, 2) ethyl gallate, 3) quinic acid, 4) gallamide trihydrate, 5) ellagic acid, 6) propyl gallate, and 7) pyrogallol."}, "[3]": {"target": "T1, human amylin (Homo sapiens, UniProt P10997)", "T1 construct": "This amyloid protein involved consists of a 37 amino acid protein known as islet amyloid polypeptide or amylin; purchased Bachem", "T1 sequence (P10997 34-70 limits assumed)": "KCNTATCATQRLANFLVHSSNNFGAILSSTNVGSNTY", "test": "Thioflavin T fluorometry: disassembly/disruption of islet amyloid (amylin) fibrils", "settings": "25 µM human amylin, 100µg/ml compound, amylin:compound weight ratio 1:1, overnight (~18 hours) at 37°C, pH 7.0; read-out: Fluorescence inhibition, %"}, "[4]": {"target": "T1, human amylin", "test": "Congo red staining of amylin fibrils on gelatin-coated slides (polarized light)", "settings": "result in words; amylin + compound after overnight incubation, compared with amylin alone", "protocol": "Following Thioflavin T fluorometry readings as described in Example 1, 5µl aliquots of amylin only, amylin + myricetin, amylin + exifone, and amylin + tannic acid were also taken, allowed to air dry overnight on gelatin-coated slides, and stained with Congo red as previously described (Castillo et al., Diabetes 47:612-620, 1998)."}}}
{"compound": "O=C(O)c1cc(O)c(O)c(O)c1", "note": "[Gallic acid, gallic acid]", "values": [{"measurement": "Fluorescence inhibition, %, at the Aβ 1-42:compound w/w ratios given", "setting": "[1]; Aβ 1-42:compound w/w ratio 2:1, 25 µM Aβ 1-42, 50µg/ml compound", "result": "44 ± 1.7", "unit": "%"}, {"measurement": "Decrease in absorbance, %", "setting": "[2]", "result": "52 ± 0.4", "unit": "%"}]}
{"compound": "O=C(OC[C@H]1O[C@@H](OC(=O)c2cc(O)c(O)c(OC(=O)c3cc(O)c(O)c(O)c3)c2)[C@H](OC(=O)c2cc(O)c(O)c(OC(=O)c3cc(O)c(O)c(O)c3)c2)[C@@H](OC(=O)c2cc(O)c(O)c(OC(=O)c3cc(O)c(O)c(O)c3)c2)[C@@H]1OC(=O)c1cc(O)c(O)c(OC(=O)c2cc(O)c(O)c(O)c2)c1)c1cc(O)c(O)c(OC(=O)c2cc(O)c(O)c(O)c2)c1", "note": "[Tannic acid, tannic acid]", "values": [{"measurement": "inhibition at 100 µg/mL", "setting": "[3]", "result": "83.8 ± 1.4", "unit": "%"}, {"measurement": "Fluorescence inhibition, %, at the Aβ 1-42:compound w/w ratios given", "setting": "[1]; Aβ 1-42:compound w/w ratio 1:1, 25 µM Aβ 1-42, 100µg/ml compound", "result": "77 ± 1.3", "unit": "%"}, {"measurement": "Congo red staining", "setting": "[4]", "result": "marked decrease in Congo red staining"}]}
